Test results as given in PMC6199744, “Development of Chemical Proteomics for the Folateome and Analysis of the Kinetoplastid Folateome” (ACS Infectious Diseases, 2018).
Where two headings read alike, the source gives them in different places.

Key:
Format in all cases: binding
[1] = target: T1, HeLa cell extract proteins (Homo sapiens, UniProt P28074)
T1 construct: endogenous in cells; host or cells: HeLa cell extract
T1 sequence (P28074 60-263): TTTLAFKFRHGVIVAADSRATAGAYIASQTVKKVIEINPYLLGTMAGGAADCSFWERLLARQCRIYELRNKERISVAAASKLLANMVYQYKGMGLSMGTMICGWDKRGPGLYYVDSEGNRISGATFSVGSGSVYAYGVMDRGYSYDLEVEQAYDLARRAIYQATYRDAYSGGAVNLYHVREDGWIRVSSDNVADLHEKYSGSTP

[2] = target: T2, HeLa cell extract proteins (Homo sapiens, UniProt Q96PK6)
T2 construct: endogenous in cells; host or cells: HeLa cell extract
T2 sequence (Q96PK6 1-669): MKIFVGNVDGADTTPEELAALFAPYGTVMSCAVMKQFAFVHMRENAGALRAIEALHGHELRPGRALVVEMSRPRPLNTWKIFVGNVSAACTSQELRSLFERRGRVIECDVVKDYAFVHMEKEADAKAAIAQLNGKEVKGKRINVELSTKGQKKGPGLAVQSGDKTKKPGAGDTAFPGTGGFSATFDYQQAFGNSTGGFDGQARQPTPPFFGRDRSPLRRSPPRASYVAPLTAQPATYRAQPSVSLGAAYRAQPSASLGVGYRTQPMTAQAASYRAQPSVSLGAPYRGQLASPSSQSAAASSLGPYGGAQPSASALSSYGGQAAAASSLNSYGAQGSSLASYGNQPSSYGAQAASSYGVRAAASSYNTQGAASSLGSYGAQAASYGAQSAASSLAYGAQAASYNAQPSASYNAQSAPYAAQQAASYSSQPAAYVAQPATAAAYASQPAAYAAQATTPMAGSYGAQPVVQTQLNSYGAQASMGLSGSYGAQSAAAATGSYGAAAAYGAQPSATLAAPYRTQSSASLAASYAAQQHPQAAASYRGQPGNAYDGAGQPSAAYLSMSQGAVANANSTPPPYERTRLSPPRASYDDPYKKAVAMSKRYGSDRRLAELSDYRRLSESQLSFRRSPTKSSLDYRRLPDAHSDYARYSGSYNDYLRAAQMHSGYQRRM

[3] = target: T3, HeLa cell extract proteins (Homo sapiens, UniProt P56192)
T3 construct: endogenous in cells; host or cells: HeLa cell extract
T3 sequence (P56192 1-900): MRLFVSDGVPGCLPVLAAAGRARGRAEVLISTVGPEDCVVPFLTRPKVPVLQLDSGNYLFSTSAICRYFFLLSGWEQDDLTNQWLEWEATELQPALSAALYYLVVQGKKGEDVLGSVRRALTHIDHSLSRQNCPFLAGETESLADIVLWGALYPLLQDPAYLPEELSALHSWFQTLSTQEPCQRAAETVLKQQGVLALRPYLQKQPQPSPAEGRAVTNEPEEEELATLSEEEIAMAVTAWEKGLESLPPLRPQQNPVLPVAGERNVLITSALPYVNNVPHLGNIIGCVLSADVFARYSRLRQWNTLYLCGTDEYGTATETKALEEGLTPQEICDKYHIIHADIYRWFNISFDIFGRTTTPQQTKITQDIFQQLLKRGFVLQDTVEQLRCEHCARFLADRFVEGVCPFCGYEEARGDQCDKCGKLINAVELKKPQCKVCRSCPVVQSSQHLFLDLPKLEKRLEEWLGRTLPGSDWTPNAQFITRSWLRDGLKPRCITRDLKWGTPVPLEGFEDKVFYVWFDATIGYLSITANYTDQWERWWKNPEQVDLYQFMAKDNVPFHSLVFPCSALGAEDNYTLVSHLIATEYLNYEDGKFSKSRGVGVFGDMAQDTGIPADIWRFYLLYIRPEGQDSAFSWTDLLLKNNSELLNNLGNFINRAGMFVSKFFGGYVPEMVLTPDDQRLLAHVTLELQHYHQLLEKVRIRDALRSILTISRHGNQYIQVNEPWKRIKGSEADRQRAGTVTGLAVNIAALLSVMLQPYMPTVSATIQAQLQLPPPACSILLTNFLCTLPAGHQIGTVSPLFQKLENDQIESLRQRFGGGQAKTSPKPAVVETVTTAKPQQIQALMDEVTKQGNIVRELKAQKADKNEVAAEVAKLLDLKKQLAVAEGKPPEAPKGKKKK

[4] = target: T4, HeLa cell extract proteins (Homo sapiens, UniProt Q9UNK9)
T4 construct: endogenous in cells; host or cells: HeLa cell extract
T4 sequence (Q9UNK9 1-670): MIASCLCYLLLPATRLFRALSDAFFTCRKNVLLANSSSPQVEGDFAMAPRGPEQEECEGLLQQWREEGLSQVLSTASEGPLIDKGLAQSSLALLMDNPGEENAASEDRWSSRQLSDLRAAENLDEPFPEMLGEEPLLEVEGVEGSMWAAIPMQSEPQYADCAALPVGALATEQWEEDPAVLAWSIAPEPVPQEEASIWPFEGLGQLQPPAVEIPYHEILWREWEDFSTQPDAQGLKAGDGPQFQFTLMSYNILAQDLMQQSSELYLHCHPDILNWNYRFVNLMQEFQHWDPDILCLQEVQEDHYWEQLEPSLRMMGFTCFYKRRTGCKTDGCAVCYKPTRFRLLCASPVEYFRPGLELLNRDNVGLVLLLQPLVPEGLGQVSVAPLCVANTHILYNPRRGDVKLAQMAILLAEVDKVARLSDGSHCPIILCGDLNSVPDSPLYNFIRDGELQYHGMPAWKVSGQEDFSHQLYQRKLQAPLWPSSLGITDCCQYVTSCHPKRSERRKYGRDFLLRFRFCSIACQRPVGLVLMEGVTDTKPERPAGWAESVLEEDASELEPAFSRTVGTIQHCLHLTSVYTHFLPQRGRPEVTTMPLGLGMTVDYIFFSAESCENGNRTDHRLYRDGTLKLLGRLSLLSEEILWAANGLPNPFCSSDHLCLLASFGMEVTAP

[5] = target: T5, HeLa cell extract proteins (Homo sapiens, UniProt P17987)
T5 construct: endogenous in cells; host or cells: HeLa cell extract
T5 sequence (P17987 whole entry): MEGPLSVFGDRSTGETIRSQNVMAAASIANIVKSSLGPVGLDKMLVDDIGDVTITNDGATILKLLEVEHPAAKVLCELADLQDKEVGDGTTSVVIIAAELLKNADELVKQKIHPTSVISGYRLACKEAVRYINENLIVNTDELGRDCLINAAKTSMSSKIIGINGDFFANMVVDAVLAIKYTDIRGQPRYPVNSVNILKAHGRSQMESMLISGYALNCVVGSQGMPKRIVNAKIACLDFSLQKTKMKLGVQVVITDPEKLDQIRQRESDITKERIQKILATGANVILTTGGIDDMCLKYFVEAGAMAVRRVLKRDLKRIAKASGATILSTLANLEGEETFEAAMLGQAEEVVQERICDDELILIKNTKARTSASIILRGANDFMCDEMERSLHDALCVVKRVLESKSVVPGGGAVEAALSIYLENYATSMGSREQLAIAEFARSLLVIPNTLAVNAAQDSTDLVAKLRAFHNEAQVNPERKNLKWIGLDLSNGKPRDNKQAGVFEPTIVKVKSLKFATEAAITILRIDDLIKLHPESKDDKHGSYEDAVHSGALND

Compound | fold changes relative to vehicle control ([1]; HeLa, protein PSMB5) | fold changes relative to vehicle control ([2]; HeLa, captured protein RBM14) | fold changes relative to vehicle control ([3]; HeLa, captured protein MARS) | fold changes relative to vehicle control ([4]; protein ANGEL1, HeLa) | fold changes relative to vehicle control ([5]; HeLa, protein TCP1) | fold changes relative to vehicle control ([1]; protein PSMB5, HeLa) | fold changes relative to vehicle control ([2]; captured protein RBM14, HeLa) | fold changes relative to vehicle control ([3]; captured protein MARS, HeLa) | fold changes relative to vehicle control ([4]; captured protein ANGEL1, HeLa) | fold changes relative to vehicle control ([5]; protein TCP1, HeLa) | other results
Nc1nc2c(c(=O)[nH]1)N(C=O)C(CNc1ccc(C(=O)N[C@@H](CCC(=O)O)C(=O)O)cc1)CN2 (some centres unmarked) [LEU, leucovorin] | 0.97 | 0.92 | 0.92 | 0.84 | 1.04 |  |  |  |  |  | 
Nc1nc2[nH]cc(CCc3ccc(C(=O)N[C@@H](CCC(=O)O)C(=O)O)cc3)c2c(=O)[nH]1 [PTX, pemetrexed] |  |  |  |  |  |  |  |  |  |  | fold changes relative to vehicle control [1]: 1; fold changes relative to vehicle control [2]: 0.99; fold changes relative to vehicle control [3]: 0.93; fold changes relative to vehicle control [4]: 0.94; fold changes relative to vehicle control [5]: 1.08
CCCCCCOc1ccc(Cc2cnc(N)nc2N)cc1 [compound 1] |  |  |  |  |  | 1.11 | 0.72 | 0.74 | 1.04 | 1.22 | 
CCCCCCOc1cccc(Cc2cnc(N)nc2N)c1 [compound 2] |  |  |  |  |  | 1.24 | 1 | 1.07 | 0.94 | 1.65 | 
Nc1nc2cccc(-c3ccccc3)c2n1Cc1ccc(Cl)c(Cl)c1 [compound 3] |  |  |  |  |  | 0.95 | 0.87 | 0.93 | 0.95 | 1.09 | 
NCCOCCOCC(=O)Nc1nc2ncc(CNc3ccc(C(=O)NC(CCC(=O)O)C(=O)O)cc3)nc2c(=O)[nH]1 (centres unmarked) [compound 6] | 1.05 | 1.06 | 1.01 | 1.02 | 1.32 |  |  |  |  |  | 
NCCCNc1ccc(C(=O)NC(CCC(=O)O)C(=O)O)cc1 (centres unmarked) [compound 7] | 1 | 1.1 | 0.94 | 1 | 1.07 |  |  |  |  |  | 
